In article PMC6164518 (Marine Drugs, 2018):

How the values were obtained:
equine serum BChE = target: T1, equine serum BChE (Equus caballus, UniProt P81908); test: biochemical; settings: BChE from equine serum; mean ± SD from three separate experiments; read-out: IC50 eqBChE
T1 construct: purchased Sigma-Aldrich (Steinheim, Germany); host or cells: equine serum
Method: (§1) The AChE and BChE inhibitory activities of compounds were determined by using a slightly modified Ellman’s method. Electric eel AChE, equine serum BChE, 5,5′-dithiobis(2-nitrobenzoic acid) (DTNB), phosphate buffer solution (PBS, pH 8.0), acetylthiocholine (ATC) iodide, and butyrylthiocholine (BUC) iodide were purchased from Sigma-Aldrich (Steinheim, Germany). […] Enzyme solutions were prepared at 2.0 U/mL in 2-mL aliquots. The assay medium consisted of 10 μL of enzyme, 40 μL of PBS, 20 μL of 0.01 M DTNB, and 10 μL of tested compound. Assayed solutions of tested compounds were pre-incubated with corresponding ChE for 5 min. The reaction was initiated by the addition of 20 μL of 0.01 M substrate (ATC or BUC). The activity was determined by measuring the increase in absorbance at 410 nm at 37 °C in 2-min intervals using Tecan Spark multimode microplate reader (Mannedorf, Switzerland). The percentage of inhibition (I) was calculated from the measured data as follows: I = (Ac − Ai)/Ac × 100%, where Ai and Ac represent the change in the absorbance in the presence of an inhibitor and without an inhibitor, respectively.

Electric eel AChE = target: T2, Electric eel AChE (Electrophorus electricus, UniProt O42275); test: biochemical; settings: AChE from electric eel; mean ± SD from three separate experiments; read-out: IC50 EeAChE
T2 construct: purchased Sigma-Aldrich (Steinheim, Germany)
T2 sequence (O42275 24-633): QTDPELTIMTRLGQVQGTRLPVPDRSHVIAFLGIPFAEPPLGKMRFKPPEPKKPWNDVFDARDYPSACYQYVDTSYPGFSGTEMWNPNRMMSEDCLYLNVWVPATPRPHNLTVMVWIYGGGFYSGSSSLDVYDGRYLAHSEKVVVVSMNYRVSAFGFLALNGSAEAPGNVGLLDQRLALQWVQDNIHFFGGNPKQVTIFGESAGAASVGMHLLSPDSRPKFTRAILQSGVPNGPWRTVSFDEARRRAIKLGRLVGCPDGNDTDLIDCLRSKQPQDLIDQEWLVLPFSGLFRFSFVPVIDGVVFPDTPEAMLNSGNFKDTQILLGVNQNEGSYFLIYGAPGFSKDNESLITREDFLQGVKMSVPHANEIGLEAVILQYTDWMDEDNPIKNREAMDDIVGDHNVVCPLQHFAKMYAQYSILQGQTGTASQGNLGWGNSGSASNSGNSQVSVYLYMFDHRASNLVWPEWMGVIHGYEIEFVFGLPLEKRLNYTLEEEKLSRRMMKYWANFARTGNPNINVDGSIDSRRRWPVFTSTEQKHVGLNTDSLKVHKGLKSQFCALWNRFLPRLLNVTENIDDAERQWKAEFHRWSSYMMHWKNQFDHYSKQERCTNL
Method: as §1

AChE = target: T3, AChE (Electrophorus electricus, UniProt O42275); test: Kinetic study of AChE inhibition (Lineweaver-Burk, Ellman's method); type: biochemical
T3 construct: purchased Sigma-Aldrich (Steinheim, Germany)
T3 sequence (O42275 24-633): as above
Method: (§2) Herein, compound 12j was selected as a representative prototype for kinetic assay to obtain information on the mode of action and binding site of this series of analogues. […].
(§3) The equilibrium constant for binding with the free enzyme (Ki) was obtained from the slope against inhibitor concentration. […].
(§4) Kinetic studies of inhibition on AChE and BChE were performed by using Ellman’s method as described above. […]
(§5) (B) Secondary plot of slopes versus 12j concentrations.

in vitro = settings: human
Method: Thus, to verify the hepatotoxicity of 1 and 12j, a 3-(4,5-dimethylthiazol-2-yl)-2,5-diphenyltetrazolium bromide (MTT) assay on the human hepatoma cell line (HepG2) was carried out.
The cytotoxicity of selected compounds was evaluated on HepG2 cells. Cells were inoculated into 96-well plates. After incubation for 24 h, the cells were treated with different concentrations of tested compounds for 24 h, and then were incubated with 10 μL of 3-(4,5-dimethylthiazol-2-yl)-2,5-diphenyltetrazolium bromide (MTT) at 37 °C for 2 h. The formazan dye product was measured by the absorbance at 490 nm on a Tecan Spark multimode microplate reader.

BChE = target: T4, BChE (Equus caballus, UniProt P81908); test: Kinetic study of BChE inhibition (Lineweaver-Burk, Ellman's method); type: biochemical
T4 construct: purchased Sigma-Aldrich (Steinheim, Germany); host or cells: equine serum
T4 sequence (P81908 whole entry): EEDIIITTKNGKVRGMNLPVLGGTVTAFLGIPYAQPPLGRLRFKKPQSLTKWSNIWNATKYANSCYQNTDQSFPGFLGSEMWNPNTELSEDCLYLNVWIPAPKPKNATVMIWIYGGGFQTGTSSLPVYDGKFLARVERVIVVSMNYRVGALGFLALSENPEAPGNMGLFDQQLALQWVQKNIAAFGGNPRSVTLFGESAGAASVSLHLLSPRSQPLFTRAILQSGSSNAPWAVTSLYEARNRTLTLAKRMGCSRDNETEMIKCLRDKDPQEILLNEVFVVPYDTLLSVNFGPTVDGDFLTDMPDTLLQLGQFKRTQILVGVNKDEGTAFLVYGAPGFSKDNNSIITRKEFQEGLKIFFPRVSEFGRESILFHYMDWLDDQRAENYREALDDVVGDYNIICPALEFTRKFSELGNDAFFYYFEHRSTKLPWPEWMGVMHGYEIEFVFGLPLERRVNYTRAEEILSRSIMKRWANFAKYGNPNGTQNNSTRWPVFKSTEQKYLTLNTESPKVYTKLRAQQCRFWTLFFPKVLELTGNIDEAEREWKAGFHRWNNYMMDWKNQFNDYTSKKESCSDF
Method: as §2, §3, §4, §5

Aβ1–42 and AChE = target: T5, Aβ1–42 and AChE (Electrophorus electricus, UniProt O42275); test: Inhibition of AChE-induced Aβ1–42 aggregation (ThT fluorescence); type: biochemical; settings: Aβ1–42 2.5 µM, AChE 0.2 U/mL, compound 8 µM; mean ± SD of three experiments
T5 construct: HFIP pre-treated Aβ1–42 (GL Biochem Ltd., shanghai, China) was dissolved in DMSO; purchased GL Biochem Ltd. (Aβ1–42)
T5 sequence (O42275 24-633): as the sequence (O42275 24-633) above
Method: The stock solution was centrifuged at the speed of 13,500 rpm for 10 min. The above supernatant was used for experiments. […] Fluorescence emission was measured at 490 nm with an excitation wavelength of 450 nm on a Tecan Spark multimode microplate reader.

Aβ1–42 = target: T6, Aβ1–42 (Homo sapiens, UniProt P05067); test: Inhibition of self-induced Aβ1–42 aggregation (ThT fluorescence); type: biochemical; settings: Aβ1–42 2.5 µM, compound 10 µM, mean ± SD of three experiments
T6 construct: pre-treated Aβ1–42 (GL Biochem Ltd., Shanghai, China) was dissolved in DMSO; purchased GL Biochem Ltd., Shanghai, China
T6 sequence (P05067 672-713 limits assumed): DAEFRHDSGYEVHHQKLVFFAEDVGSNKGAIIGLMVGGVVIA
Method: In order to investigate the inhibition of compounds on Aβ1–42 self-aggregation, a ThT-based fluorometric assay was performed. 1,1,1,3,3,3-hexafluoro-2-propanol (HFIP) pre-treated Aβ1–42 (GL Biochem Ltd., Shanghai, China) was dissolved in DMSO to make a 200 µM stock solution. The stock solution was centrifuged at the speed of 13,500 rpm for 10 min. The above supernatant was used for experiments. The tested compounds were dissolved in DMSO at concentrations of 0.8 mM. A screening assay for the tested compounds to inhibit A aggregation was performed by measuring ThT fluorescence emission. Compounds (2 µL) and 2 µL of 200 µM Aβ1–42 were added into 76 µL of phosphate-buffered saline (PBS at pH 7.4) in a 96-well plate. After incubation for 24 h at room temperature, 80 µL of 5 µM of ThT solution (in 50 mM of glycine-NaOH at pH 8.5) was added to the reaction solution. Fluorescence emission was measured at 490 nm with an excitation wavelength of 450 nm on a Tecan Spark multimode microplate reader. […] The fluorescence intensities were compared, and the % inhibition was calculated by the following equation: 100 − [(Fi − Fb)/(Fo − Fb) × 100], where Fi, Fo and Fb are the fluorescence intensities obtained for Aβ aggregation in the presence of inhibitors Aβ1–42 and ThT; in the presence of Aβ1–42 and THT but no inhibitors; and the blanks containing ThT only.

[1] = estimated from secondary plot of slopes versus inhibitor concentration

T1 sequence (P81908 whole entry): as the sequence (P81908 whole entry) above

Compound | IC50 (equine serum BChE) | IC50 (Electric eel AChE) | also measured
COc1ccc(CC(=O)NCCCCCCCNc2c3c(nc4ccccc24)CCCC3)c(Br)c1 [Compound 12a, 2-(2-Bromo-4-methoxyphenyl)-N-(7-((1,2,3,4-tetrahydroacridin-9-yl)amino)heptyl)acetamide] | 140 ± 4 nM | 324 ± 33 nM | 
COc1c(Br)cc(CC(=O)NCCCCCCCCNc2c3c(nc4ccccc24)CCCC3)cc1Br [Compound 10g, 2-(3,5-Dibromo-4-methoxyphenyl)-N-(8-((1,2,3,4-tetrahydroacridin-9-yl)amino)octyl)acetamide] | 325 ± 4 nM | 427 ± 16 nM | 
O=C(Cc1ccc(F)c(Br)c1)NCCCCCCCNc1c2c(nc3ccccc13)CCCC2 [Compound 12i, 2-(3-Bromo-4-fluorophenyl)-N-(7-((1,2,3,4-tetrahydroacridin-9-yl)amino)heptyl)acetamide] | 49 ± 4 nM | 748 ± 17 nM | 
O=C(Cc1cc(Br)ccc1F)NCCCCCCCNc1c2c(nc3ccccc13)CCCC2 [Compound 12j, 2-(5-Bromo-2-fluorophenyl)-N-(7-((1,2,3,4-tetrahydroacridin-9-yl)amino)heptyl)acetamide] | 64 ± 6 nM | 182 ± 6 nM | Type of AChE inhibition (AChE; Lineweaver-Burk plots): linear mixed-type; Ki (AChE; [1]): 97.5 nM; IC50 at 24 h (in vitro): > 80000 nM; Type of BChE inhibition (BChE; Lineweaver-Burk plots): linear mixed-type; Ki (BChE; [1]): 9.91 nM; Inhibition of Aβ Aggregation (%) AChE-Induced (Aβ1–42 and AChE): 47.73 ± 4.35%; Inhibition of Aβ Aggregation (%) Self-Induced (Aβ1–42): 32.37 ± 0.62%
COc1c(Br)cc(CC(=O)NCCCCCCCNc2c3c(nc4ccccc24)CCCC3)cc1Br [Compound 10f, 2-(3,5-Dibromo-4-methoxyphenyl)-N-(7-((1,2,3,4-tetrahydroacridin-9-yl)amino)heptyl)acetamide] | 53 ± 7 nM | 314 ± 10 nM | 
COc1c(Br)cc(CC(=O)NCCCCCCNc2c3c(nc4ccccc24)CCCC3)cc1Br [Compound 10e, 2-(3,5-Dibromo-4-methoxyphenyl)-N-(6-((1,2,3,4-tetrahydroacridin-9-yl)amino)hexyl)acetamide] | 54 ± 6 nM | 686 ± 45 nM | 
O=C(Cc1cc(Cl)ccc1Br)NCCCCCCCNc1c2c(nc3ccccc13)CCCC2 [Compound 12k, 2-(2-Bromo-5-chlorophenyl)-N-(7-((1,2,3,4-tetrahydroacridin-9-yl)amino)heptyl)acetamide] | 104 ± 1 nM | 383 ± 54 nM | 
O=C(Cc1cccc(Br)c1)NCCCCCCCNc1c2c(nc3ccccc13)CCCC2 [Compound 12e, 2-(3-Bromophenyl)-N-(7-((1,2,3,4-tetrahydroacridin-9-yl)amino)heptyl)acetamide] | 149 ± 21 nM | 724 ± 3 nM | 
COc1c(Br)cc(CC(=O)NCCCCCNc2c3c(nc4ccccc24)CCCC3)cc1Br [Compound 10d, 2-(3,5-Dibromo-4-methoxyphenyl)-N-(5-((1,2,3,4-tetrahydroacridin-9-yl)amino)pentyl)acetamide] | 100 ± 14 nM | 764 ± 16 nM | 
O=C(Cc1ccccc1Br)NCCCCCCCNc1c2c(nc3ccccc13)CCCC2 [Compound 12d, 2-(2-Bromophenyl)-N-(7-((1,2,3,4-tetrahydroacridin-9-yl)amino)heptyl)acetamide] | 91 ± 17 nM | 304 ± 4 nM | 
O=C(Cc1ccc(Br)cc1)NCCCCCCCNc1c2c(nc3ccccc13)CCCC2 [Compound 12f, 2-(4-Bromophenyl)-N-(7-((1,2,3,4-tetrahydroacridin-9-yl)amino)heptyl)acetamide] | 214 ± 4 nM | 597 ± 28 nM | 
O=C(Cc1ccccc1)NCCCCCCCNc1c2c(nc3ccccc13)CCCC2 [Compound 12l, 2-Phenyl-N-(7-((1,2,3,4-tetrahydroacridin-9-yl)amino)heptyl)acetamide] | 680 ± 54 nM | 760 ± 92 nM | 
O=C(Cc1cc(Br)cc(Br)c1)NCCCCCCCNc1c2c(nc3ccccc13)CCCC2 [Compound 12h, 2-(3,5-Dibromophenyl)-N-(7-((1,2,3,4-tetrahydroacridin-9-yl)amino)heptyl)acetamide] | 204 ± 11 nM | 729 ± 21 nM | 
COc1ccc2c3c1O[C@H]1C[C@@H](O)C=C[C@@]31CCN(C)C2 [Galantamine, reference compound] |  |  | Inhibition of Aβ Aggregation (%) Self-Induced (Aβ1–42): 1.25 ± 0.46%; Inhibition of Aβ Aggregation (%) Self-Induced (Aβ1–42; listed as galantamine): no significant inhibition
COc1c(Br)cc(CC(=O)NCCCCCCCCCCNc2c3c(nc4ccccc24)CCCC3)cc1Br [Compound 10h, 2-(3,5-Dibromo-4-methoxyphenyl)-N-(10-((1,2,3,4-tetrahydroacridin-9-yl)amino)decyl)acetamide] | 516 ± 37 nM | 638 ± 26 nM | 
COc1ccc(CC(=O)NCCCCCCCNc2c3c(nc4ccccc24)CCCC3)cc1 [Compound 12b, 2-(4-Methoxyphenyl)-N-(7-((1,2,3,4-tetrahydroacridin-9-yl)amino)heptyl)acetamide] | 694 ± 3 nM | 750 ± 54 nM | 
COc1c(Br)cc(CC(=O)NCCNc2c3c(nc4ccccc24)CCCC3)cc1Br [Compound 10a, 2-(3,5-Dibromo-4-methoxyphenyl)-N-(2-((1,2,3,4-tetrahydroacridin-9-yl)amino)ethyl)acetamide] | 230 ± 10 nM | 880 ± 74 nM | 
COc1c(Br)cc(CC(=O)NCCCNc2c3c(nc4ccccc24)CCCC3)cc1Br [Compound 10b, 2-(3,5-Dibromo-4-methoxyphenyl)-N-(3-((1,2,3,4-tetrahydroacridin-9-yl)amino)propyl)acetamide] | 233 ± 13 nM | 771 ± 27 nM | 
Nc1c2c(nc3ccccc13)CCCC2 [Tacrine, reference compound] |  |  | IC50 at 24 h (in vitro): 38900 ± 530 nM
COc1c(Br)cc(CC(=O)NCCCCNc2c3c(nc4ccccc24)CCCC3)cc1Br [Compound 10c, 2-(3,5-Dibromo-4-methoxyphenyl)-N-(4-((1,2,3,4-tetrahydroacridin-9-yl)amino)butyl)acetamide] | 195 ± 11 nM | 1050 ± 161 nM | 
COc1ccc(CC(=O)NCCCCCCCNc2c3c(nc4ccccc24)CCCC3)cc1Br [Compound 12c, 2-(3-Bromo-4-methoxyphenyl)-N-(7-((1,2,3,4-tetrahydroacridin-9-yl)amino)heptyl)acetamide] | 152 ± 6 nM | 607 ± 45 nM | 
O=C(Cc1cc(Br)ccc1Br)NCCCCCCCNc1c2c(nc3ccccc13)CCCC2 [Compound 12g, 2-(2,5-Dibromophenyl)-N-(7-((1,2,3,4-tetrahydroacridin-9-yl)amino)heptyl)acetamide] | 62 ± 6 nM | 696 ± 52 nM | 
